In brackets after ≈: the same amount, converted by molar mass.
Key:
Test in all cases: minimal inhibitory concentration, two-fold agar dilution
Type in all cases: cell-based
[1] = tested on: Staphylococcus aureus ATCC 6538p; settings: ATCC6538P, Muller-Hinton agar, 37°C, 20 hours, read-out: MIC values against the standard strains
Summary of the method: (§1)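 Compounds were serially diluted two-fold into Mueller-Hinton agar, and each plate was spot-inoculated with the test strain at 10⁷ CFU per ml. Plates were incubated at 37°C for 20 hours before MIC values were read.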

[2] = tested on: Pseudomonas aeruginosa ATCC 27853; settings: ATCC27853, Muller-Hinton agar, 37°C, 20 hours, read-out: MIC values against the standard strains
Summary of the method: as §1

[3] = tested on: Micrococcus luteus ATCC 9341; settings: ATCC9341, Muller-Hinton agar, 37°C, 20 hours, read-out: MIC values against the standard strains
Summary of the method: as §1

[4] = tested on: Shigella flexneri ATCC 11836; settings: ATCC11836, Muller-Hinton agar, 37°C, 20 hours, read-out: MIC values against the standard strains
Summary of the method: as §1

[5] = tested on: Escherichia coli ATCC 10536; settings: ATCC10536, Muller-Hinton agar, 37°C, 20 hours, read-out: MIC values against the standard strains
Summary of the method: as §1

[6] = tested on: Morganella morganii ATCC 8076h; settings: ATCC8076H, Muller-Hinton agar, 37°C, 20 hours, read-out: MIC values against the standard strains
Summary of the method: as §1

[7] = tested on: Streptococcus faecalis ATCC 29212; settings: Enterococcus faecalis, ATCC29212; Muller-Hinton agar; 37°C; 20 hours; read-out: MIC values against the standard strains
Summary of the method: as §1

[8] = tested on: Citrobacter freundii ATCC 8090; settings: ATCC8090, Muller-Hinton agar, 37°C, 20 hours, read-out: MIC values against the standard strains
Summary of the method: as §1

[9] = tested on: Escherichia coli ATCC 25922; settings: ATCC25922, Muller-Hinton agar, 37°C, 20 hours, read-out: MIC values against the standard strains
Summary of the method: as §1

[10] = tested on: Salmonella typhimurium ATCC 14028; settings: Salmonella enterica; Muller-Hinton agar; 37°C; 20 hours; read-out: MIC values against the standard strains
Summary of the method: as §1

[11] = tested on: Acinetobacter calcoaceticus ATCC 15473; settings: ATCC15473, Muller-Hinton agar, 37°C, 20 hours, read-out: MIC values against the standard strains
Summary of the method: as §1

[12] = tested on: Pseudomonas aeruginosa ATCC 25619; settings: ATCC25619, Muller-Hinton agar, 37°C, 20 hours, read-out: MIC values against the standard strains
Summary of the method: as §1

[13] = tested on: Staphylococcus aureus ATCC 10537; settings: ATCC10537, Muller-Hinton agar, 37°C, 20 hours, read-out: MIC values against the standard strains
Summary of the method: as §1

[14] = tested on: Staphylococcus epidermidis ATCC 12228; settings: ATCC12228, Muller-Hinton agar, 37°C, 20 hours, read-out: MIC values against the standard strains
Summary of the method: as §1

[15] = tested on: Bacillus cereus ATCC 11778; settings: ATCC11778, Muller-Hinton agar, 37°C, 20 hours, read-out: MIC values against the standard strains
Summary of the method: as §1

[16] = tested on: Proteus mirabilis ATCC 25933; settings: ATCC25933, Muller-Hinton agar, 37°C, 20 hours, read-out: MIC values against the standard strains
Summary of the method: as §1

[17] = tested on: Klebsiella pneumoniae ATCC 10031; settings: ATCC10031, Muller-Hinton agar, 37°C, 20 hours, read-out: MIC values against the standard strains
Summary of the method: as §1

[18] = tested on: Serratia marcescens ATCC 27117; settings: ATCC27117, Muller-Hinton agar, 37°C, 20 hours, read-out: MIC values against the standard strains
Summary of the method: as §1

[19] = tested on: Pseudomonas aeruginosa ATCC 10145; settings: ATCC10145, Muller-Hinton agar, 37°C, 20 hours, read-out: MIC values against the standard strains
Summary of the method: as §1

[20] = tested on: Enterobacter aerogenes ATCC 29751; settings: Klebsiella aerogenes, ATCC29751; Muller-Hinton agar; 37°C; 20 hours; read-out: MIC values against the standard strains
Summary of the method: as §1

[21] = tested on: Providencia rettgeri ATCC 9250; settings: ATCC9250, Muller-Hinton agar, 37°C, 20 hours, read-out: MIC values against the standard strains
Summary of the method: as §1

[22] = tested on: Shigella sonnei ATCC 11060; settings: ATCC11060, Muller-Hinton agar, 37°C, 20 hours, read-out: MIC values against the standard strains
Summary of the method: as §1

[23] = tested on: Proteus vulgaris ATCC 6059; settings: ATCC6059, Muller-Hinton agar, 37°C, 20 hours, read-out: MIC values against the standard strains
Summary of the method: as §1

[24] = tested on: Enterobacter cloacae ATCC 27508; settings: ATCC27508, Muller-Hinton agar, 37°C, 20 hours, read-out: MIC values against the standard strains
Summary of the method: as §1

[25] = tested on: Bacillus megaterium ATCC 9885; settings: Priestia megaterium, ATCC9885; Muller-Hinton agar; 37°C; 20 hours; read-out: MIC values against the standard strains
Summary of the method: as §1

Row | Structure (SMILES) | MIC [1] [µg/mL] | MIC [2] [µg/mL] | MIC [3] [µg/mL] | MIC [4] [µg/mL] | MIC [5] [µg/mL] | MIC [6] [µg/mL] | MIC [7] [µg/mL] | MIC [8] [µg/mL] | MIC [9] [µg/mL] | MIC [10] [µg/mL] | MIC [11] [µg/mL] | MIC [12] [µg/mL] | MIC [13] [µg/mL] | MIC [14] [µg/mL] | MIC [15] [µg/mL] | MIC [16] [µg/mL] | MIC [17] [µg/mL] | MIC [18] [µg/mL] | MIC [19] [µg/mL] | MIC [20] [µg/mL] | also measured
1 | CNc1cc(N)nc(SCC2=C(C(=O)[O-])N3C(=O)[C@@H](NC(=O)/C(=N\OC(C)(C)C(=O)O)c4csc(N)n4)[C@H]3SC2)[n+]1C [Example 35, 7-[(Z)-2-(2-aminothiazol-4-yl)-2-(carboxyprop-2-oxyimino)acetamido]-3-(4-amino-6-methylamino-1-methylpyrimidinium-2-yl)thiomethyl-3-cephem-4-carboxylate] | 4 (≈ 6.27 µM) | 2 (≈ 3.14 µM) | 0.25 (≈ 0.392 µM) | 0.031 (≈ 0.0486 µM) | 0.063 (≈ 0.0988 µM) | ≤ 0.008 | > 128 | 0.063 (≈ 0.0988 µM) | 0.063 (≈ 0.0988 µM) | 0.13 (≈ 0.204 µM) | 8 (≈ 12.5 µM) | 2 (≈ 3.14 µM) | 2 (≈ 3.14 µM) | 2 (≈ 3.14 µM) | 128 (≈ 201 µM) | 0.031 (≈ 0.0486 µM) | 0.063 (≈ 0.0988 µM) | 0.13 (≈ 0.204 µM) | 2 (≈ 3.14 µM) | 1 (≈ 1.57 µM) | MIC [21]: ≤ 0.008 µg/mL; MIC [22]: 0.063 µg/mL (≈ 0.0988 µM); MIC [23]: 0.063 µg/mL (≈ 0.0988 µM); MIC [24]: ≤ 0.008 µg/mL; MIC [25]: 0.5 µg/mL (≈ 0.784 µM)
2 | CCO/N=C(\C(=O)N[C@@H]1C(=O)N2C(C(=O)[O-])=C(CSc3nc(N)cc(NC)[n+]3C)CS[C@H]12)c1csc(N)n1 [Example 36, 7-[(Z)-2-(2-aminothiazol-4-yl)-2-(ethoxyimino)acetamido]-3-(4-amino-6-methylamino-1-methylpyrimidinium-2-yl)thiomethyl-3-cephem-4-carboxylate] | 0.25 (≈ 0.431 µM) | 4 (≈ 6.9 µM) | ≤ 0.008 | ≤ 0.008 | 0.031 (≈ 0.0535 µM) | 0.016 (≈ 0.0276 µM) | 32 (≈ 55.2 µM) | 0.016 (≈ 0.0276 µM) | 0.063 (≈ 0.109 µM) | 0.13 (≈ 0.224 µM) | 4 (≈ 6.9 µM) | 0.5 (≈ 0.863 µM) | 0.13 (≈ 0.224 µM) | 0.031 (≈ 0.0535 µM) | 32 (≈ 55.2 µM) | 0.25 (≈ 0.431 µM) | ≤ 0.008 | 0.13 (≈ 0.224 µM) | 8 (≈ 13.8 µM) | 0.13 (≈ 0.224 µM) | MIC [21]: ≤ 0.008 µg/mL; MIC [22]: 0.063 µg/mL (≈ 0.109 µM); MIC [23]: 0.25 µg/mL (≈ 0.431 µM); MIC [24]: ≤ 0.008 µg/mL; MIC [25]: 0.063 µg/mL (≈ 0.109 µM)
3 | CCO/N=C(\C(=O)N[C@@H]1C(=O)N2C(C(=O)[O-])=C(CSc3nc(N)cc[n+]3N)CS[C@H]12)c1csc(N)n1 [Example 42, 7-[(Z)-2-(2-aminothiazol-4-yl)-2-(ethoxyimino)acetamido]-3-(1,4-diaminopyrimidinium-2-yl)thiomethyl-3-cephem-4-carboxylate] | 0.13 (≈ 0.236 µM) | 4 (≈ 7.25 µM) | ≤ 0.008 | 0.25 (≈ 0.453 µM) | 0.031 (≈ 0.0562 µM) | 0.25 (≈ 0.453 µM) | 8 (≈ 14.5 µM) | 0.063 (≈ 0.114 µM) | 0.031 (≈ 0.0562 µM) | 0.5 (≈ 0.906 µM) | 4 (≈ 7.25 µM) | 0.5 (≈ 0.906 µM) | 0.13 (≈ 0.236 µM) | 0.031 (≈ 0.0562 µM) | 32 (≈ 58 µM) | 1 (≈ 1.81 µM) | ≤ 0.008 | 0.5 (≈ 0.906 µM) | 8 (≈ 14.5 µM) | 0.13 (≈ 0.236 µM) | MIC [21]: 0.063 µg/mL (≈ 0.114 µM); MIC [22]: 0.25 µg/mL (≈ 0.453 µM); MIC [23]: 1 µg/mL (≈ 1.81 µM); MIC [24]: ≤ 0.008 µg/mL; MIC [25]: 0.063 µg/mL (≈ 0.114 µM)
4 | CC(C)(O/N=C(\C(=O)N[C@@H]1C(=O)N2C(C(=O)[O-])=C(CSc3nc(N)cc[n+]3N)CS[C@H]12)c1csc(N)n1)C(=O)O [Example 43] | 8 (≈ 13.1 µM) | 1 (≈ 1.64 µM) | 0.5 (≈ 0.82 µM) | 0.031 (≈ 0.0508 µM) | 0.063 (≈ 0.103 µM) | ≤ 0.008 | > 128 | 0.063 (≈ 0.103 µM) | 0.063 (≈ 0.103 µM) | 0.13 (≈ 0.213 µM) | 2 (≈ 3.28 µM) | 1 (≈ 1.64 µM) | 2 (≈ 3.28 µM) | 2 (≈ 3.28 µM) | 128 (≈ 210 µM) | 0.031 (≈ 0.0508 µM) | 0.063 (≈ 0.103 µM) | 0.13 (≈ 0.213 µM) | 2 (≈ 3.28 µM) | 0.5 (≈ 0.82 µM) | MIC [21]: ≤ 0.008 µg/mL; MIC [22]: 0.063 µg/mL (≈ 0.103 µM); MIC [23]: 0.031 µg/mL (≈ 0.0508 µM); MIC [24]: ≤ 0.008 µg/mL; MIC [25]: 0.5 µg/mL (≈ 0.82 µM)
5 | CCO/N=C(\C(=O)N[C@@H]1C(=O)N2C(C(=O)[O-])=C(CSc3nc(N)c(N)c[n+]3N)CS[C@H]12)c1csc(N)n1 [Example 46, 7-[(Z)-2-(2-aminothiazol-4-yl)-2-(ethoxyimino)acetamido]-3-(1,4,5-triaminopyrimidinium-2-yl)thiomethyl-3-cephem-4-carboxylate] | 0.25 (≈ 0.441 µM) | 4 (≈ 7.06 µM) | 0.031 (≈ 0.0547 µM) | 0.031 (≈ 0.0547 µM) | 0.031 (≈ 0.0547 µM) | 0.016 (≈ 0.0282 µM) | 8 (≈ 14.1 µM) | 0.063 (≈ 0.111 µM) | 0.031 (≈ 0.0547 µM) | 0.25 (≈ 0.441 µM) | 4 (≈ 7.06 µM) | 0.5 (≈ 0.882 µM) | 0.13 (≈ 0.229 µM) | 0.031 (≈ 0.0547 µM) | 64 (≈ 113 µM) | 0.25 (≈ 0.441 µM) | 0.063 (≈ 0.111 µM) | 0.25 (≈ 0.441 µM) | 8 (≈ 14.1 µM) | 1 (≈ 1.76 µM) | MIC [21]: 0.031 µg/mL (≈ 0.0547 µM); MIC [22]: 0.031 µg/mL (≈ 0.0547 µM); MIC [23]: 0.25 µg/mL (≈ 0.441 µM); MIC [24]: ≤ 0.008 µg/mL; MIC [25]: 0.063 µg/mL (≈ 0.111 µM)

Reference: patent publication EP0584797A2, “Novel cephalosporin compounds and processes for the preparation thereof” (LUCKY LTD., priority 1992, dated 1994)
